Experimental data taken from patent US6486193B2, “3-substituted pyrrolidines useful as inhibitors of matrix metalloproteinases” (Aventis Pharmaceuticals Inc., priority 1998, dated 2002).

How the values were obtained:
MMP-2 = biological target: T1, MMP-2 (Homo sapiens, UniProt P08253); experiment: Determination of inhibition constant (Ki) for MMP-2, fluorogenic substrate; assay type: biochemical; details: footnote: results are identical for MMP-1, MMP-2, MMP-3, MMP-13 and MMP-14, read-out: MMP Ki app
T1 construct: made in house; host or cells: Pichia pastoris (vector pHIL-D2; strains KM71 and SMD1168; clone 24S)
T1 sequence (P08253 110-660): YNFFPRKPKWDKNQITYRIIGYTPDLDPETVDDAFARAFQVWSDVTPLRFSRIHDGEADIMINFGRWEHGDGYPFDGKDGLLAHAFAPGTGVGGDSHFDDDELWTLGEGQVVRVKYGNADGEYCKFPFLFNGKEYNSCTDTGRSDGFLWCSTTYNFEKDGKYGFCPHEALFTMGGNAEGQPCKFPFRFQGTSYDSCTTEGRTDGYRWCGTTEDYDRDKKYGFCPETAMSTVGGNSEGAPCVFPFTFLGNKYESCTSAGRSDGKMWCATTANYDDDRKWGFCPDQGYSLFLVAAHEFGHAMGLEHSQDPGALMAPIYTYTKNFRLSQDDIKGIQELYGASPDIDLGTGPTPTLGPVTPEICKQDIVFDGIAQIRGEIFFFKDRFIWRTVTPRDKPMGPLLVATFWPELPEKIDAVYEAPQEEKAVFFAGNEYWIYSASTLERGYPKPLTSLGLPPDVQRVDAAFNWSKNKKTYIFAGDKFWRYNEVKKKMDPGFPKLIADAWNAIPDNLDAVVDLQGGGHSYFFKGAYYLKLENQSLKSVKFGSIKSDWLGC
Text: Recombinant MMP-2 was purified from the fermentation broth of yeast Pichia pastoris that carries the integrated MMP-2 gene into its chromosome. In brief, the full-length cDNA for MMP-2 was obtained by reverse transcription of RNA from human melanoma A375M cell line by the reverse transcriptase polymerase chain reaction (RT-PCR) using sequence specific oligonucleotides. The nucleotide sequence was confirmed by Taq cycle sequencing. The cDNA was ligated into the Pichia pastoris expression vector pHIL-D2 in such a way that the expression of pro-MMP-2 is under the control of the methanol inducible alcohol oxidase promoter. The expression construct was digested with either SalI or NsiI and used to transform the Pichia pastoris strains KM71 and SMD1 168. A large-scale culture of a selected clone designated 24S was performed in a high cell density fermentor and the recombinant MMP-2 was purified from the culture supernatant by gelatin-sepharose 4B (Pharmacia). The enzyme is sufficiently pure at this stage for routine measurement of inhibition. If desired, however, the enzyme may be further purified by AcA 44 gel filtration (Spectra).
The active MMP-2 was obtained by activation of proMMP-2 at 37° C. for 1 h with 4-aminophenylmercuric acetate which was then removed by a Sephadex G-50 spin column. The enzyme is assayed using a fluorogenic substrate, Mca-Pro-Leu-Gly-Leu-Dpa-Ala-Arg-NH2, at 37° C. in 2.0 mL of assay buffer containing 50 mM Tris, pH 7.6, 0.2 M sodium chloride, 50 mM calcium chloride, 0.02% Brij-35, and 50 μM β-mercaptoethanol. The increase in fluorescence is monitored (λex 328 nm, λem 393 nm). Substrate and inhibitor stock solutions are made in DMF. The enzyme is added at the last to start the reaction. For routine measurement of a Ki value for a reversible, competitive inhibitor, the initial rates in the presence of at least four inhibitor concentrations (two inhibitor concentrations above Ki and two below Ki) are measured using [S]=1 μM (<<Km) and [MMP-2]=0.4 nM. Under these conditions, the measured Ki, app is close to true Ki.

MMP-8 = MMP-8 (Homo sapiens, UniProt P22894); experiment: MMP-8 enzyme activity, quenched fluorigenic substrate, 96 well plate; assay type: biochemical; details: read-out: MMP-8 Ki app
Method: The MMP-8 data was determined according to Knight C. G. et al., Febs Lett, 296, 263-266 (1992), “A novel coumarin-labelled peptide for sensitive continuous assays of the matrix metalloproteinases” in the modification of K. U. Weithmann et al., Inflamm. Res. 46 (7), 246-252 (1997), “Effects of tiaprofenic acid on urinary pyridinium crosslinks in adjuvant arthritic rats: Comparison and doxycycline effects on human matrix metalloproteinases and cellular cytokine generation in vitro” as follows:
Enzyme activity of MMP was determined in 96 well titer plate format in a luminescence spectrometer (LS 50B, Perkin Elmer, Langen, FRG), using the quenched fluorigenic substrate 7-methoxycoumarin-4-yl) acetyl-pro-leu-gly-leu-3-(2′,4′-dinitrophenyl)-L-2,3-diaminopropionyl-ala-arg-NH2 (λex=328 nm, λem=393 nm), available from Bachem, Heidelberg, FRG. Each well contained: 70 μl buffer (0.1 mol/l tris/HCl, pH=7.5; 0.1 mol/l NaCl; 0.01 mol/l CaCl2,0.05% Brij 35™), 10 μl enzyme, and 10 μl drug in 10%DMSO. After preincubation for 15 min at room temperature the reaction was started by addition of 10 μl substrate (1 mmol/l in 10% DMSO). Initial velocity of enzymatic reaction was determined without drug (=100%) or, resp. with different drug concentrations.

Sequence of MMP-8 (P22894 101-467): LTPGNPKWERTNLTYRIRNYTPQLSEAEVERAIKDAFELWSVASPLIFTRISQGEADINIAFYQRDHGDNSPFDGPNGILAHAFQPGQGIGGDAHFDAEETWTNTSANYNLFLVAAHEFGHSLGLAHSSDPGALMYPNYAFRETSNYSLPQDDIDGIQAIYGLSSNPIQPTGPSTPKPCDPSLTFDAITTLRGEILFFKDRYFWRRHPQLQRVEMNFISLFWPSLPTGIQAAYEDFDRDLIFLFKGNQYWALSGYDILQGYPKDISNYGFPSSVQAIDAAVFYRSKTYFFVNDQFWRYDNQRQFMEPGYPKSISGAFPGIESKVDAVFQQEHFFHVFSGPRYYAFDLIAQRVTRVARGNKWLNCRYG

| SMILES | Ki (MMP-2) | Ki (MMP-8) |
| --- | --- | --- |
| CNC(=O)[C@@H](NC(=O)[C@@H]1[C@H](Cc2ccccc2)CCN1C(=O)[C@@H](S)C(C)C)C(C)(C)C [Compound 1h, (2S,3R)-3-Benzyl-1-((S)-2-mercapto-3-methyl-butanoyl)-pyrrolidine-2-carboxylic acid ((S)-2,2-dimethyl-1-methylcarbamoyl-propyl)-amide] | > 10 µM | 3 µM |
| CNC(=O)[C@@H](NC(=O)[C@@H]1[C@@H](Cc2ccccc2)CCN1C(=O)[C@@H](S)C(C)C)C(C)(C)C [Compound 1g, (2S,3S)-3-Benzyl-1-((S)-2-mercapto-3-methyl-butanoyl)-pyrrolidine-2-carboxylic acid ((S)-2,2-dimethyl-1-methylcarbamoyl-propyl)-amide] | > 10 µM | > 10 µM |
| CNC(=O)[C@H](Cc1ccc(O)cc1)NC(=O)[C@@H]1[C@H](Cc2ccccc2)CCN1C(=O)[C@@H](S)C(C)C [Compound 1b, (2S,3R)-3-Benzyl-1-((S)-2-mercapto-3-methyl-butanoyl)-pyrrolidine-2-carboxylic acid [(S)-2-(4-hydroxy-phenyl)-1-methylcarbamoyl-ethyl]-amide] | > 10 µM | 3 µM |
| CNC(=O)[C@H](Cc1ccc(O)cc1)NC(=O)[C@@H]1[C@@H](Cc2ccccc2)CCN1C(=O)[C@@H](S)C(C)C [Compound 1a, (2S,3S)-3-Benzyl-1-((S)-2-mercapto-3-methyl-butanoyl)-pyrrolidine-2-carboxylic acid [(S)-2-(4-hydroxy-phenyl)-1-methylcarbamoyl-ethyl]-amide] | > 10 µM | > 10 µM |

Continued, values first:

| Ki (MMP-2) | Ki (MMP-8) | SMILES |
| --- | --- | --- |
| > 10 µM | 4 µM | CNC(=O)[C@H](Cc1cccnc1)NC(=O)[C@@H]1[C@H](Cc2ccccc2)CCN1C(=O)[C@@H](S)C(C)C [Compound 1d, (2S,3R)-3-Benzyl-1-((S)-2-mercapto-3-methyl-butanoyl)-pyrrolidine-2-carboxylic acid ((S)-1-methylcarbamoyl-2-pyridin-3-yl-ethyl)-amide] |
| > 10 µM | > 10 µM | CNC(=O)[C@@H](Cc1cccnc1)NC(=O)[C@@H]1[C@@H](Cc2ccccc2)CCN1C(=O)[C@@H](S)C(C)C [Compound 1e, (2S,3S)-3-Benzyl-1-((S)-2-mercapto-3-methyl-butanoyl)-pyrrolidine-2-carboxylic acid ((R)-1-methylcarbamoyl-2-pyridin-3-yl-ethyl)-amide] |
| > 10 µM | > 10 µM | CNC(=O)[C@@H](Cc1cccnc1)NC(=O)[C@@H]1C(Cc2ccccc2)CCN1C(=O)[C@@H](S)C(C)C (stereo in doubt) [Compound 1f, (2S,3S)-3-Benzyl-1-((S)-2-mercapto-3-methyl-butanoyl)-pyrrolidine-2-carboxylic acid ((R)-1-methylcarbamoyl-2-pyridin-3-yl-ethyl)-amide] |
| > 10 µM | 9 µM | CNC(=O)[C@H](Cc1cccnc1)NC(=O)[C@@H]1[C@@H](Cc2ccccc2)CCN1C(=O)[C@@H](S)C(C)C [Compound 1c, (2S,3S)-3-Benzyl-1-((S)-2-mercapto-3-methyl-butanoyl)-pyrrolidine-2-carboxylic acid ((S)-1-methylcarbamoyl-2-pyridin-3-yl-ethyl)-amide] |
